What all share (type): functional
In experiment [1] the test system is Mycobacterium tuberculosis variant bovis BCG. In words: Ratio of WCC99.9 for Mycobacterium bovis BCG ATCC 35734 under low-oxygen tension conditions to MBC99.9 for Mycobacterium bovis BCG ATCC 35734.
The test system is the same in experiment [2]. In words: Ratio of WCC99.9 for Mycobacterium bovis BCG ATCC 35734 under low-oxygen tension conditions to MIC90 for Mycobacterium bovis BCG ATCC 35734.
Experiment [3] shares this test system. In words: Ratio of MBC99.9 to MIC90 for Mycobacterium bovis BCG ATCC 35734.

On to `CCCCCCCCn1cc(CN2CCCCCC2)c2c(F)cccc21`, for which the Ratio in experiment [1] was greater than 2; in experiment [2], greater than 4; in experiment [3], 2.

Source of the values: ChEMBL document CHEMBL4007488, “Amphiphilic Indole Derivatives as Antimycobacterial Agents: Structure-Activity Relationships and Membrane Targeting Properties” (J Med Chem, 2017).
